Experimental data taken from ChEMBL document CHEMBL1127928, “Macrolide-type motilin receptor agonists: Assessment of the biological value of the 2- and 4-hydroxyl groups of acid-stable 8,9-anhydroerythromycin A 6,9-hemiacetals” (Bioorg Med Chem Lett, 1994).
≈ marks a conversion by molar mass, not a printed value.

Columns and labels:
Canis familiaris [1] = experiment: In vivo contractile activity in the gastric antrum and the small intestine in fasted conscious dogs upon intragastric administration was determined; format: functional, Canis lupus familiaris
Canis familiaris [2] = experiment: In vivo contractile activity in the gastric antrum and the small intestine in fasted conscious dogs upon intravenous administration was determined; format: functional, Canis lupus familiaris
Motilin receptor [3] = biological target: T1, Motilin receptor (Oryctolagus cuniculus, UniProt A5A4K8); experiment: In vitro binding affinity towards motilin receptor was determined after treatment with hydrochloric acid in rabbit small intestinal smooth muscle tissue homogenate; format: tissue-based
Motilin receptor [4] = biological target: T1, Motilin receptor; experiment: In vitro binding affinity towards motilin receptor was determined in rabbit small intestinal smooth muscle tissue homogenate; format: tissue-based
Oryctolagus cuniculus = species on record: Oryctolagus cuniculus; experiment: In vitro contractile activity was measured in the rabbit duodenum preparation; format: functional
Streptococcus pneumoniae = experiment: Tested for antimicrobial activity against Streptococcus pneumoniae No. 12; format: functional
Bacillus subtilis = experiment: Tested for antimicrobial activity against Bacillus subtilis ATCC 6633; format: functional
Klebsiella pneumoniae = experiment: Tested for antimicrobial activity against Klebsiella pneumoniae IFO 3512; format: functional
Staphylococcus aureus = experiment: Tested for antimicrobial activity against Staphylococcus aureus 209P; format: functional

T1 sequence (A5A4K8 whole entry): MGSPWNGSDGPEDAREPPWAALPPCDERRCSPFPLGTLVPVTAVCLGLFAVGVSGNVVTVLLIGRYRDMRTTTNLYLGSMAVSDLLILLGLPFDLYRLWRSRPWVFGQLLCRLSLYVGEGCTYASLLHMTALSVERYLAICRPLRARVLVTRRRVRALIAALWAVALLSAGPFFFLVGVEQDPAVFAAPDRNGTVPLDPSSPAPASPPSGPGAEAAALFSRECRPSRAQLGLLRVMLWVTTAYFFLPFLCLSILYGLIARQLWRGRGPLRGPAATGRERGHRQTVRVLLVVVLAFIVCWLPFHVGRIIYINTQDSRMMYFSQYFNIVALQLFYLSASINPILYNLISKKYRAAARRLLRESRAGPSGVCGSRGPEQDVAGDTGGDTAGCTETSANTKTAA

Row | IC50 (Motilin receptor [3]) | IC50 (Motilin receptor [4]) | EC50 (Oryctolagus cuniculus) | MIC (Streptococcus pneumoniae) | MIC (Bacillus subtilis) | MIC (Klebsiella pneumoniae) | MIC (Staphylococcus aureus) | MIC (Streptococcus pneumoniae; read-out: MIC) | SMILES | MI100 (Canis familiaris [1]) | MI100 (Canis familiaris [2])
1 | 1.78 nM | 2.51 nM | 6.17 nM | 100 µg/mL | – | – | – | – | CCC1OC(=O)C(C)C(O[C@H]2C[C@@](C)(OC)CC(C)O2)C(C)[C@@H](OC2OC(C)CC(N(C)C(C)C)[C@H]2O)[C@]2(C)CC(C)=C(O2)[C@H](C)C(=O)[C@]1(C)OC (some centres undefined) | 0.3 µg/kg | 0.09 µg/kg
2 | 3.8 nM | 3.47 nM | 9.12 nM | 100 µg/mL | – | – | – | – | CCC1OC(=O)C(C)C(O[C@H]2C[C@@](C)(OC)CC(C)O2)C(C)[C@@H](OC2OC(C)CC(N(C)CC)[C@H]2O)[C@]2(C)CC(C)=C(O2)[C@H](C)C(=O)[C@]1(C)OC (some centres undefined) | 0.2 µg/kg | 0.3 µg/kg
3 | 3.89 nM | 2.29 nM | 10.5 nM | – | 50 µg/mL (≈ 70.2 µM) | 100 µg/mL (≈ 140 µM) | 100 µg/mL (≈ 140 µM) | 1600 µM | CCC1OC(=O)C(C)C(O[C@H]2C[C@@](C)(OC)CC(C)O2)C(C)[C@@H](OC2OC(C)CC(N(C)C)[C@H]2O)[C@]2(C)CC(C)=C(O2)[C@H](C)C(=O)[C@]1(C)OC (some centres undefined) | 1.2 µg/kg | 0.4 µg/kg
4 | – | 1.86 nM | 209 nM | – | – | – | – | – | CCC1OC(=O)C(C)C(O[C@H]2C[C@@](C)(OC)CC(C)O2)C(C)[C@@H](OC2CC(N(C)C(C)C)CC(C)O2)[C@]2(C)CC(C)=C(O2)[C@H](C)C(=O)[C@]1(C)OC (some centres undefined) | – | >70 µg/kg
